Experimental data from US7560479B2 (priority 2003, dated 2009).

Key:
[1] = molecular target: T1, M2 muscarinic receptor subtype (Rattus norvegicus, UniProt P10980); assay: biochemical; type: binding
T1 construct: Submandibular glands and heart were isolated and placed in ice cold homogenising buffer; from tissue; host or cells: rat heart membrane homogenate
T1 sequence (P10980 1-466): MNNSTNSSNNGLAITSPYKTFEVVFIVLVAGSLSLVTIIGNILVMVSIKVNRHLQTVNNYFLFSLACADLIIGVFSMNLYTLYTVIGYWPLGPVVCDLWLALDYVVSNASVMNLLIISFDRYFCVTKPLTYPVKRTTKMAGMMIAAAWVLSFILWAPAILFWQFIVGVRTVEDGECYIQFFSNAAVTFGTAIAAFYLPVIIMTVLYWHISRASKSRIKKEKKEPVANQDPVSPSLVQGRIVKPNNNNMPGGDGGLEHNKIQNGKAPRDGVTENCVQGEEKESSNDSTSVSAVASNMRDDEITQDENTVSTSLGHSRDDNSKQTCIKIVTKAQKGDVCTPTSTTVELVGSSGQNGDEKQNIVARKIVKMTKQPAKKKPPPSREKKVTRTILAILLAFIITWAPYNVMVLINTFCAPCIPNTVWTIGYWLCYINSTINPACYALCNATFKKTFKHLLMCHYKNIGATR

[2] = molecular target: T2, M3 muscarinic receptor subtype (Rattus norvegicus, UniProt P08483); assay: biochemical; type: binding
T2 construct: Submandibular glands and heart were isolated and placed in ice cold homogenising buffer; from tissue; host or cells: rat submandibular gland membrane homogenate

[3] = system: isolated rat bladder; assay: tissue or blood; type: cell-based; settings: read-out: Functional Assay pkB

T2 sequence (P08483 whole entry): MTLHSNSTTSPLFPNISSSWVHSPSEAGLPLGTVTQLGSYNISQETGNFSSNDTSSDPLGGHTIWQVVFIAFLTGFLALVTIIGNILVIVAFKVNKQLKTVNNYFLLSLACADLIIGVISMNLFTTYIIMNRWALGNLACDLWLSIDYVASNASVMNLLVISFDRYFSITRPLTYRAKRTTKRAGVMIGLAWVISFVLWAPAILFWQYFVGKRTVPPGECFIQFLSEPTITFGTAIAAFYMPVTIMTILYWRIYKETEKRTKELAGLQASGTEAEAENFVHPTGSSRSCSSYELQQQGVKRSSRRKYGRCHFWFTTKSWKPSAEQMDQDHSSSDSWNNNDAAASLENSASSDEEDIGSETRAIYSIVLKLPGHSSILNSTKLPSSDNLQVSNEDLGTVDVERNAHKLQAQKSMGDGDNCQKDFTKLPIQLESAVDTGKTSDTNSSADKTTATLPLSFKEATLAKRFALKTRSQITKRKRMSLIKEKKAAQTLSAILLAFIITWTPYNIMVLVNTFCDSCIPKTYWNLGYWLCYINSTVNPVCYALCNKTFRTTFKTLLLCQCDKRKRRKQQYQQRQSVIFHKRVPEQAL

Structure (SMILES) | Ki [1] [nM] | Ki [2] [nM] | Kb [3] [nM]
O=C(N[C@H]1[C@@H]2CN(CCc3ccc4c(c3)OCO4)C[C@@H]21)[C@](O)(c1ccccc1)C1CCC(F)(F)C1 (stereo partly drawn) [Compound 9, (2R)-(1α, 5α, 6α)-6-N-[3-(2-(3,4-methylenedioxyphenyl)ethyl]-3-azabicyclo[3.1.0]-hexyl]-2-[(1R or 1S)-3,3-difluorocyclopentyl]-2-hydroxy-2-phenylacetamide] | 4270 | 79.4 | –
CC(C)=CCCN1C[C@@H]2[C@H](C1)[C@H]2NC(=O)[C@@](O)(c1ccccc1)C1CCC(F)(F)C1 (single isomer, unassigned) [Compound 13B, (2S)-(1α, 5α, 6α)-6-N-[3-(4-methyl-3-pentenyl)-3-azabicyclo[3.1.0]-hexyl-2-[(1R or 1S)-3,3-difluorocyclopentyl]-2-hydroxy-2-phenylacetamide] | > 10000 | 2000 | 67.6
CC(C)=CCCN1CC2C(C1)C2NC(=O)C(O)(c1ccccc1)C1CCC(F)(F)C1 (single isomer, unassigned) [Compound 14, (2R)-(1α, 5α, 6α)-6-N-[3-(4-methyl-3-pentenyl)-3-azabicyclo[3.1.0]-hexyl]-2-[(1R or 1S)-3,3-difluorocyclopentyl]-2-hydroxy-2-phenylacetamide] | > 10000 | 1580 | 132
O=C(N[C@H]1[C@@H]2CN(CCc3ccc4c(c3)OCO4)C[C@@H]21)[C@@](O)(c1ccccc1)C1CCC(F)C1 (stereo partly drawn) [Compound 11, (2S)-(1α, 5α, 6α)-6-N-[3-(2-(3,4-methylenedioxyphenyl)ethyl]-3-azabicyclo[3.1.0]-hexyl]-2-[(1R or 1S, 3R or 3S)-3-fluorocyclopentyl]-2-hydroxy-2-phenylacetamide] | 6310 | 63.1 | –
